Test results from patent EP0847397B1, “WATER-SOLUBLE C-RING ANALOGUES OF 20 (S)-CAMPTOTHECIN” (DR. REDDY'S RESEARCH FOUNDATION, priority 1996, dated 1997).

Legend:
H 522 = test: NCI in vitro 60 human tumor cell line assay; assay type: cell-based; conditions: NCI-H522, 48 h, read-out: Total Growth Inhibition (TGI)
Protocol: (§1) Each test compound was screened against a battery of 60 human cell lines obtained from eight organs. In a typical procedure, the cell suspensions that were diluted according to the particular cell type and the expected target cell density (5000-40,000 cells per well based on cell growth characteristics) were added into 96-well microtiter plates. Inoculates were allowed a preincubation period of 24h at 37°C. for stabilization. Dilutions at twice the intended test concentrations were added at time zero in 100-µl aliquots to microtiter plate wells. Usually test compounds were evaluated at five 10-fold dilutions. The highest well concentration used in the test is 10^-4M. The cells are then incubated in the presence of drug (the test compound) for further 48h in 5% CO2 atmosphere and 100% humidity. At the end of this time, the adherent cells are fixed to the plate by means of trichloroacetic acid, and after a number of washes, the cell layer is treated with the protein stain Sulforhodamine B. The optical density which is proportional to protein mass, is then read by automated spectrophotometric plate readers at a wavelength of 515 nm. Readings are transferred to a microcomputer and final reports are generated using especially developed software.

H 460 = test: NCI in vitro 60 human tumor cell line assay; assay type: cell-based; conditions: Homo sapiens, NCI-H460, 48 h, read-out: Total Growth Inhibition (TGI)
Protocol: as §1

HCT 15 = test: NCI in vitro 60 human tumor cell line assay; assay type: cell-based; conditions: HCT-15, 48 h, read-out: Total Growth Inhibition (TGI)
Protocol: as §1

MDA-MB-435 = test: NCI in vitro 60 human tumor cell line assay; assay type: cell-based; conditions: MDA-MB-435, 48 h, read-out: Total Growth Inhibition (TGI)
T 47D = test: NCI in vitro 60 human tumor cell line assay; assay type: cell-based; conditions: T47D, 48 h, read-out: Total Growth Inhibition (TGI)
Protocol: as §1

HT 29 = test: NCI in vitro 60 human tumor cell line assay; assay type: cell-based; conditions: Homo sapiens, HT-29, 48 h, read-out: Total Growth Inhibition (TGI)
Protocol: as §1

MCF 7/ ADR = test: NCI in vitro 60 human tumor cell line assay; assay type: cell-based; conditions: Homo sapiens, NCI/ADR-RES, 48 h, read-out: Total Growth Inhibition (TGI)
Protocol: as §1

SN12C = test: NCI in vitro 60 human tumor cell line assay; assay type: cell-based; conditions: 48 h, read-out: Total Growth Inhibition (TGI)
Protocol: as §1

BT 549 = test: NCI in vitro 60 human tumor cell line assay; assay type: cell-based; conditions: BT-549, 48 h, read-out: Total Growth Inhibition (TGI)
Protocol: as §1

HOP 92 = test: NCI in vitro 60 human tumor cell line assay; assay type: cell-based; conditions: HOP-92, 48 h, read-out: Total Growth Inhibition (TGI)
[1] = test system: NCI's 60 human tumor cell line assay; test: cells; assay type: cell-based; conditions: 60 cell, 48 h, read-out: IC50 (mean GI50 against NCI's 60 human tumor cell line assay)
Protocol: as §1

H 23 = test: NCI in vitro 60 human tumor cell line assay; assay type: cell-based; conditions: NCI-H23, 48 h, read-out: Total Growth Inhibition (TGI)
Protocol: as §1

ACHN = test: NCI in vitro 60 human tumor cell line assay; assay type: cell-based; conditions: 48 h, read-out: Total Growth Inhibition (TGI)
Protocol: as §1

H 226 = test: NCI in vitro 60 human tumor cell line assay; assay type: cell-based; conditions: NCI-H226, 48 h, read-out: Total Growth Inhibition (TGI)
Protocol: as §1

KM 12 = test: NCI in vitro 60 human tumor cell line assay; assay type: cell-based; conditions: KM12, 48 h, read-out: Total Growth Inhibition (TGI)
Protocol: as §1

786-O = test: NCI in vitro 60 human tumor cell line assay; assay type: cell-based; conditions: 786-0, 48 h, read-out: Total Growth Inhibition (TGI)
Protocol: (§2) Each test compound was screened against a battery of 60 human cell lines obtained from eight organs. In a typical procedure, the cell suspensions that were diluted according to the particular cell type and the expected target cell density (5000-40,000 cells per well based on cell growth characteristics) were added into 96-well microtiter plates. Inoculates were allowed a preincubation period of 24h at 37°C. for stabilization. Dilutions at twice the intended test concentrations were added at time zero in 100-µl aliquots to microtiter plate wells. Usually test compounds were evaluated at five 10-fold dilutions. The highest well concentration used in the test is 10^-4M. The cells are then incubated in the presence of drug (the test compound) for further 48h in 5% CO2 atmosphere and 100% humidity. At the end of this time, the adherent cells are fixed to the plate by means of trichloroacetic acid, and after a number of washes, the cell layer is treated with the protein stain Sulforhodamine B. The optical density which is proportional to protein mass, is then read by automated spectrophotometric plate readers at a wavelength of 515 nm.

H 322M = test: NCI in vitro 60 human tumor cell line assay; assay type: cell-based; conditions: NCI-H322M, 48 h, read-out: Total Growth Inhibition (TGI)
Protocol: as §1

MDA-N = test: NCI in vitro 60 human tumor cell line assay; assay type: cell-based; conditions: BREAST, 48h, read-out: Total Growth Inhibition (TGI)
Protocol: as §2

A 498 = test: NCI in vitro 60 human tumor cell line assay; assay type: cell-based; conditions: A498, 48 h, read-out: Total Growth Inhibition (TGI)
Protocol: as §1

HCT 116 = test: NCI in vitro 60 human tumor cell line assay; assay type: cell-based; conditions: HCT-116, 48 h, read-out: Total Growth Inhibition (TGI)
UO 31 = test: NCI in vitro 60 human tumor cell line assay; assay type: cell-based; conditions: UO-31, 48 h, read-out: Total Growth Inhibition (TGI)
Protocol: as §1

COLO 205 = test: NCI in vitro 60 human tumor cell line assay; assay type: cell-based; conditions: COLO 205, 48 h, read-out: Total Growth Inhibition (TGI)
Protocol: as §1

HCC 2998 = test: NCI in vitro 60 human tumor cell line assay; assay type: cell-based; conditions: Homo sapiens, HCC 2998, 48 h, read-out: Total Growth Inhibition (TGI)
Protocol: as §1

CAKI = test: NCI in vitro 60 human tumor cell line assay; assay type: cell-based; conditions: 48 h, read-out: Total Growth Inhibition (TGI)
Protocol: as §1

RXF 393 = test: NCI in vitro 60 human tumor cell line assay; assay type: cell-based; conditions: RXF 393, 48 h, read-out: Total Growth Inhibition (TGI)
Protocol: as §1

KD 488 = test: In vitro activity against AIDS related Lymphoma (ARL) cell lines (NCI protocol); assay type: cell-based; conditions: Homo sapiens, KD 488, ARL cell line
HOP 62 = test: NCI in vitro 60 human tumor cell line assay; assay type: cell-based; conditions: HOP-62, 48 h, read-out: Total Growth Inhibition (TGI)
MCF 7 = test: NCI in vitro 60 human tumor cell line assay; assay type: cell-based; conditions: MCF7, 48 h, read-out: Total Growth Inhibition (TGI)
Protocol: as §1

[2] = NCI in vitro 60 human tumor cell line assay; assay type: cell-based; conditions: 48 h, read-out: Total Growth Inhibition (TGI)
Protocol: as §1

MCF7 / ADR / RES = test: NCI in vitro 60 human tumor cell line assay; assay type: cell-based; conditions: 48 h, read-out: Total Growth Inhibition (TGI)
Protocol: as §1

[3] = result in words, compared with 20(S)-camptothecin; cited from earlier work

CC[C@@]1(O)C(=O)OCc2c1cc1n(c2=O)C(OCC(F)(F)F)c2cc3c([N+](=O)[O-])cccc3nc2-1 (stereo partly shown) [Example 28, 9-Nitro-5-trifluoroethoxycamptothecin]
IC (TGI) (H 522): 13 µM | IC (TGI) (H 460): 1.22 µM | IC (TGI) (HCT 15): > 30 µM | IC (TGI) (MDA-MB-435): 11.4 µM | IC (TGI) (T 47D): 1.09 µM | IC (TGI) (HT 29): 7.94 µM | IC (TGI) (MCF 7/ ADR): 1.21 µM | IC (TGI) (SN12C): 2.31 µM | IC (TGI) (BT 549): 32 µM | IC (TGI) (HOP 92): 8.44 µM | mean GI50 [1]: 0.46 µM | IC (TGI) (H 23): 0.76 µM | IC (TGI) (ACHN): 0.37 µM | IC (TGI) (H 226): 4.3 µM | IC (TGI) (KM 12): 27.4 µM | IC (TGI) (786-O): 0.85 µM | IC (TGI) (H 322M): 30.2 µM | IC (TGI) (MDA-N): 13.4 µM | IC (TGI) (A 498): 1.76 µM | IC (TGI) (HCT 116): 8.01 µM | IC (TGI) (UO 31): 1.23 µM | IC (TGI) (COLO 205): 9.48 µM | IC (TGI) (HCC 2998): 7.65 µM | IC (TGI) (CAKI): 0.75 µM | IC (TGI) (RXF 393): 15.9 µM

CCc1c2c(nc3ccccc13)-c1cc3c(c(=O)n1C2OCCO)COC(=O)[C@]3(O)CC (stereo partly shown) [Example 32, 5-(2'-Hydroxyethoxy)-7-ethylcamptothecin]
IC (TGI) (KD 488; 48 h): 2.28 µM | GI50 (KD 488): 0.246 µM

CC[C@@]1(O)C(=O)OCc2c1cc1n(c2=O)C(OCCOC)c2cc3ccccc3nc2-1 (stereo partly shown) [Example 43, 5-(2'-methoxyethoxy)camptothecin]
IC (TGI) (H 460): 14.2 µM | IC (TGI) (HOP 62): 3.92 µM | IC (TGI) (HT 29): 18.9 µM | IC (TGI) (MCF 7): 17.8 µM | mean GI50 [1]: 2.23 µM | IC (TGI) (H 23): 2.52 µM | IC (TGI) (H 226): 6.89 µM | IC (TGI) (KM 12): 41.9 µM | IC (TGI) [2]: 23.6 µM | IC (TGI) (COLO 205): 37.3 µM | IC (TGI) (HCC 2998): 23.2 µM | IC (TGI) (MCF7 / ADR / RES): 9.3 µM

CC=c1c2cc3ccccc3nc2c2cc3c(c(=O)n12)COC(=O)[C@]3(O)CC [formula 11]
anti-tumor activity [3]: anti-tumor activity comparable to that of 20(S)-camptothecin
